Data: patent US11130793B2, “GLP-1/GLP-2 dual agonists” (Zealand Pharma A/S, priority 2016, dated 2021)
Square brackets hold non-standard residues; d marks the D form. Peptide text beside a SMILES is read from it. Aib = CC(C)(N)C(=O)O

Assays:
human GLP-1 receptor = target: T1, human GLP-1 receptor (Homo sapiens, UniProt P43220); test: GLP-1 receptor potency assay (cAMP AlphaScreen, HEK293 cells stably expressing GLP-1R); type: cell-based; conditions: cAMP response, HEK293 cells expressing human GLP-1R; read-out: EC50 GLP-1
T1 construct: expressed in transfected cells
T1 sequence (P43220 24-463): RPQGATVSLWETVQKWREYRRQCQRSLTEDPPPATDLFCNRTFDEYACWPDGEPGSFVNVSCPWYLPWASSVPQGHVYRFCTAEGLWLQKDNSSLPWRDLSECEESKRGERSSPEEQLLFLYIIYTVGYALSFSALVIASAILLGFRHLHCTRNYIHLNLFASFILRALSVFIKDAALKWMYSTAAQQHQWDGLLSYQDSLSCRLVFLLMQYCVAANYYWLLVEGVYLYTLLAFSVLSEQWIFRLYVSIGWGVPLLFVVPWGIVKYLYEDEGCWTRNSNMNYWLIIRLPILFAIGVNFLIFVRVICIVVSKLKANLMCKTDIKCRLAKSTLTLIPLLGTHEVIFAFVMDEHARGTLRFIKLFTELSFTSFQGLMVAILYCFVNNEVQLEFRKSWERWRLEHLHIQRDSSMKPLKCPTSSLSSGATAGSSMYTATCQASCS
Source text: (§1) One useful in vitro assay for measuring GLP-1 and GLP-2 receptor activity is quantitation of cAMP, i.e. 3′-5′-cyclic adenosine monophosphate, which is a second messenger essential in many biological processes, and one of the most ubiquitous mechanisms for regulating cellular functions. […] Test compounds eliciting an increase in the intracellular level of cAMP can be tested in these assays, and the response normalized relative to a positive and negative control (vehicle) to calculate the EC50 and maximal response from the concentration response curve using the 4-parameter logistic (4PL) nonlinear model for curve fitting.
The cDNA encoding the human glucagon-like peptide 1 receptor (GLP-1R) (primary accession number P43220) was cloned from the cDNA BC112126 (MGC:138331/IMAGE:8327594). The DNA encoding the GLP-1-R was amplified by PCR using primers encoding terminal restriction sites for subcloning. The 5′-end primers additionally encoded a near Kozak consensus sequence to ensure efficient translation. […] The PCR products encoding the GLP-1-R were subcloned into a mammalian expression vector containing a neomycin (G418) resistance marker. The mammalian expression vectors encoding the GLP-1-R were transfected into HEK293 cells by a standard calcium phosphate transfection method. 48 hours post-transfection, cells were seeded for limited dilution cloning and selected with 1 mg/ml G418 in the culture medium. Following 3 weeks in G418 selection clones were picked and tested in a functional GLP-1 receptor potency assay as described below.
(§2) The cAMP AlphaScreen assay from Perkin Elmer was used to quantitate the cAMP response to activation of the GLP1 and GLP2 receptor, respectively. […] Data from test compounds eliciting an increase in the intracellular level of cAMP were normalized relative to the positive and negative control (vehicle) to calculate the EC50 and maximal response from the concentration response curve.

human GLP-2 receptor = target: T2, human GLP-2 receptor (Homo sapiens, UniProt O95838, D470N); test: GLP-2 receptor potency assay (cAMP AlphaScreen, HEK293 cells stably expressing GLP-2R); type: cell-based; conditions: cAMP response, HEK293 cells expressing human GLP-2R
T2 sequence (O95838 1-553 D470N): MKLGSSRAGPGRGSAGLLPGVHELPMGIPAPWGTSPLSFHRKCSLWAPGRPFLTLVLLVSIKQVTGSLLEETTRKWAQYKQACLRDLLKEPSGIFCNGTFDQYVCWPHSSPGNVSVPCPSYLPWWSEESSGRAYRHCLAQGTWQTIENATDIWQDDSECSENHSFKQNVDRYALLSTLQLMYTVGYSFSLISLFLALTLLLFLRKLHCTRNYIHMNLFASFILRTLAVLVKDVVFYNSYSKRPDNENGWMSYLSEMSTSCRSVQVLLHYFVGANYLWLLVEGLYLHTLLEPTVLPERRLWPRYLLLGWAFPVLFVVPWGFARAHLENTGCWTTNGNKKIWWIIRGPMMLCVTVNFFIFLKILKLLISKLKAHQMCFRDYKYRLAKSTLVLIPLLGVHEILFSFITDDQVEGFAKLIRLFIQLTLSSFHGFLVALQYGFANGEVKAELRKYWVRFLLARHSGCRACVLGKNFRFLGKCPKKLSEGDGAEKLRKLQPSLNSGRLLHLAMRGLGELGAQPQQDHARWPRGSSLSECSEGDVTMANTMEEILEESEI
Source text: as §1
The hGLP2-R was purchased from MRC-geneservice, Babraham, Cambridge as an Image clone: 5363415 (11924-I17). For subcloning into a mammalian expression vector, primers for subcloning were obtained from DNA-Technology, Risskov, Denmark. The 5′ and 3′ primers used for the PCR reaction include terminal restriction sites for cloning and the context of the 5′ primer is modified to a Kozak consensus without changing the sequence of the product encoded by the ORF. A standard PCR reaction was run using Image clone 5363415 (11924-117) as a template with the above mentioned primers and Polymerase Herculase II Fusion in a total vol. of 50 μl. The generated PCR product was purified using GFX PCR and Gel band purification kit, digested with restriction enzymes and cloned into the mammalian expression vector using Rapid DNA Ligation Kit. Ligation reaction was transformed to XL10 Gold Ultracompetent cells and colonies were picked for DNA production using Endofree Plasmid maxi kit. Subsequent sequence analysis was conducted by MWG Eurofins, Germany.
HEK293 cells were transfected using the Lipofectamine PLUS transfection method. The day before transfection, HEK293 cells were seeded in two T75 flasks at a density of 2×10^6 cells/T75 flask in cell culturing medium without antibiotics. On the day of transfection, cells were washed with 1×DPBS and medium was replaced with Optimem to a volume of 5 mL/T75 flask before addition of Lipofectamine-plasmid complexes were added gently and drop wise to the cells in T75 flasks and replaced with growth medium after 3 hours and again to growth medium supplemented with 500 μg/mL G418 after 24 hours. Following 4 weeks in G418 selection, clones were picked and tested in a functional GLP-2 receptor potency assay as described below.
as §2

Compound | EC50 (human GLP-1 receptor) [pM] | EC50 (human GLP-2 receptor) [nM]
CC[C@H](C)[C@H](NC(=O)[C@H](Cc1ccccc1)NC(=O)[C@H](CC(=O)O)NC(=O)[C@H](CCCNC(=N)N)NC(=O)[C@H](C)NC(=O)[C@H](C)NC(=O)[C@H](CCC(N)=O)NC(=O)[C@H](CCC(=O)O)NC(=O)[C@H](CC(=O)O)NC(=O)[C@H](CC(C)C)NC(=O)[C@@H](NC(=O)[C@@H](NC(=O)[C@H](C)NC(=O)[C@H](CC(C)C)NC(=O)[C@H](CCC(=O)O)NC(=O)[C@H](CO)NC(=O)[C@@H](NC(=O)[C@H](Cc1ccccc1)NC(=O)[C@@H](NC(=O)CNC(=O)[C@H](CCC(=O)O)NC(=O)C(C)(C)NC(=O)[C@@H](N)Cc1c[nH]cn1)[C@@H](C)O)[C@@H](C)O)[C@@H](C)O)[C@@H](C)CC)C(=O)N[C@@H](C)C(=O)N[C@@H](Cc1c[nH]c2ccccc12)C(=O)N[C@@H](CC(C)C)C(=O)N[C@H](C(=O)N[C@@H](CCCNC(=N)N)C(=O)N[C@@H](Cc1c[nH]cn1)C(=O)N[C@@H](CCCCN)C(=O)N[C@H](C(=O)N[C@H](C(=O)N[C@@H](CC(=O)O)C(=O)O)[C@@H](C)O)[C@@H](C)CC)[C@@H](C)CC [Compound 17] (H-H[Aib]EGTFTSELATILDEQAARDFIAWLIRHKITD-OH) | 6 | 0.066
H-HGEGSFSSELATILDEQAARDFIAWLIQHKITD-NH2 [Compound 40] | 1400 | 0.05
CC[C@H](C)[C@H](NC(=O)[C@H](CC(C)C)NC(=O)[C@H](Cc1c[nH]c2ccccc12)NC(=O)[C@H](C)NC(=O)[C@@H](NC(=O)[C@H](Cc1ccccc1)NC(=O)[C@H](CC(=O)O)NC(=O)[C@H](CCCNC(=N)N)NC(=O)[C@H](C)NC(=O)[C@H](C)NC(=O)[C@H](CCC(N)=O)NC(=O)[C@H](CCC(=O)O)NC(=O)[C@H](CC(=O)O)NC(=O)[C@H](CC(C)C)NC(=O)[C@@H](NC(=O)[C@@H](NC(=O)[C@H](C)NC(=O)[C@H](CC(C)C)NC(=O)[C@H](CCC(=O)O)NC(=O)[C@H](CO)NC(=O)[C@@H](NC(=O)[C@H](Cc1ccccc1)NC(=O)[C@@H](NC(=O)CNC(=O)[C@H](CCC(=O)O)NC(=O)C(C)(C)NC(=O)[C@@H](N)Cc1c[nH]cn1)[C@@H](C)O)[C@@H](C)O)[C@@H](C)O)[C@@H](C)CC)[C@@H](C)CC)C(=O)N[C@@H](C)C(=O)N[C@@H](CCC(N)=O)C(=O)N[C@@H](CCCCN)C(=O)N[C@H](C(=O)N[C@H](C(=O)N[C@@H](CC(=O)O)C(=O)O)[C@@H](C)O)[C@@H](C)CC [Compound 19] (H-H[Aib]EGTFTSELATILDEQAARDFIAWLIAQKITD-OH) | 5 | 0.15
CC[C@H](C)[C@H](NC(=O)[C@H](CC(C)C)NC(=O)[C@H](Cc1c[nH]c2ccccc12)NC(=O)[C@H](C)NC(=O)[C@@H](NC(=O)[C@H](Cc1ccccc1)NC(=O)[C@H](CC(=O)O)NC(=O)[C@H](CCCNC(=N)N)NC(=O)[C@H](C)NC(=O)[C@H](C)NC(=O)[C@H](CCCCN)NC(=O)CNC(=O)[C@H](CC(=O)O)NC(=O)[C@H](CC(C)C)NC(=O)[C@@H](NC(=O)[C@@H](NC(=O)[C@H](C)NC(=O)[C@H](CC(C)C)NC(=O)[C@H](CCC(=O)O)NC(=O)[C@H](CO)NC(=O)[C@H](CO)NC(=O)[C@H](Cc1ccccc1)NC(=O)[C@@H](NC(=O)CNC(=O)[C@H](CCC(=O)O)NC(=O)C(C)(C)NC(=O)[C@@H](N)Cc1c[nH]cn1)[C@@H](C)O)[C@@H](C)O)[C@@H](C)CC)[C@@H](C)CC)C(=O)N[C@@H](C)C(=O)N[C@@H](Cc1c[nH]cn1)C(=O)N[C@@H](CCCCN)C(=O)N[C@H](C(=O)N[C@H](C(=O)N[C@@H](CC(=O)O)C(=O)O)[C@@H](C)O)[C@@H](C)CC [Compound 32] (H-H[Aib]EGTFSSELATILDGKAARDFIAWLIAHKITD-OH) | 38 | 0.15
CC[C@H](C)[C@H](NC(=O)[C@H](Cc1ccccc1)NC(=O)[C@H](CC(=O)O)NC(=O)[C@H](CCCNC(=N)N)NC(=O)[C@H](C)NC(=O)[C@H](C)NC(=O)[C@H](CCC(N)=O)NC(=O)[C@H](CCC(=O)O)NC(=O)[C@H](CC(=O)O)NC(=O)[C@H](CC(C)C)NC(=O)[C@@H](NC(=O)[C@@H](NC(=O)[C@H](C)NC(=O)[C@H](CC(C)C)NC(=O)[C@H](CCC(=O)O)NC(=O)[C@H](CO)NC(=O)[C@@H](NC(=O)[C@H](Cc1ccccc1)NC(=O)[C@@H](NC(=O)CNC(=O)[C@H](CCC(=O)O)NC(=O)C(C)(C)NC(=O)[C@@H](N)Cc1c[nH]cn1)[C@@H](C)O)[C@@H](C)O)[C@@H](C)O)[C@@H](C)CC)C(=O)N[C@@H](C)C(=O)N[C@@H](Cc1c[nH]c2ccccc12)C(=O)N[C@@H](CC(C)C)C(=O)N[C@H](C(=O)N[C@@H](CCC(N)=O)C(=O)N[C@@H](Cc1c[nH]cn1)C(=O)N[C@@H](CCCCN)C(=O)N[C@H](C(=O)N[C@H](C(=O)N[C@@H](CC(=O)O)C(=O)O)[C@@H](C)O)[C@@H](C)CC)[C@@H](C)CC [Compound 15] (H-H[Aib]EGTFTSELATILDEQAARDFIAWLIQHKITD-OH) | 5 | 0.038
CC[C@H](C)[C@H](NC(=O)[C@H](Cc1ccccc1)NC(=O)[C@H](CC(=O)O)NC(=O)[C@H](CCCNC(=N)N)NC(=O)[C@H](C)NC(=O)[C@H](C)NC(=O)[C@H](CCC(N)=O)NC(=O)[C@H](CCC(=O)O)NC(=O)[C@H](CC(=O)O)NC(=O)[C@H](CC(C)C)NC(=O)[C@@H](NC(=O)[C@@H](NC(=O)[C@H](C)NC(=O)[C@H](CC(C)C)NC(=O)[C@H](CCC(=O)O)NC(=O)[C@H](CO)NC(=O)[C@@H](NC(=O)[C@H](Cc1ccccc1)NC(=O)[C@@H](NC(=O)CNC(=O)[C@H](CCC(=O)O)NC(=O)C(C)(C)NC(=O)[C@@H](N)Cc1c[nH]cn1)[C@@H](C)O)[C@@H](C)O)[C@@H](C)O)[C@@H](C)CC)C(=O)N[C@@H](C)C(=O)N[C@@H](Cc1c[nH]c2ccccc12)C(=O)N[C@@H](CC(C)C)C(=O)N[C@H](C(=O)N[C@@H](CO)C(=O)N[C@@H](Cc1c[nH]cn1)C(=O)N[C@@H](CCCCN)C(=O)N[C@H](C(=O)N[C@H](C(=O)N[C@@H](CC(=O)O)C(=O)O)[C@@H](C)O)[C@@H](C)CC)[C@@H](C)CC [Compound 18] (H-H[Aib]EGTFTSELATILDEQAARDFIAWLISHKITD-OH) | 6 | 0.054
CC[C@H](C)[C@H](NC(=O)[C@H](Cc1ccccc1)NC(=O)[C@H](CC(=O)O)NC(=O)[C@H](CCCNC(=N)N)NC(=O)[C@H](C)NC(=O)[C@H](C)NC(=O)[C@H](CCC(N)=O)NC(=O)[C@H](CCC(=O)O)NC(=O)[C@H](CC(=O)O)NC(=O)[C@H](CC(C)C)NC(=O)[C@@H](NC(=O)[C@@H](NC(=O)[C@H](C)NC(=O)[C@H](CC(C)C)NC(=O)[C@H](CCC(=O)O)NC(=O)[C@H](CO)NC(=O)[C@@H](NC(=O)[C@H](Cc1ccccc1)NC(=O)[C@@H](NC(=O)CNC(=O)[C@H](CCC(=O)O)NC(=O)C(C)(C)NC(=O)[C@@H](N)Cc1c[nH]cn1)[C@@H](C)O)[C@@H](C)O)[C@@H](C)O)[C@@H](C)CC)C(=O)N[C@@H](C)C(=O)N[C@@H](Cc1c[nH]c2ccccc12)C(=O)N[C@@H](CC(C)C)C(=O)N[C@@H](Cc1ccc(O)cc1)C(=O)N[C@@H](C)C(=O)N[C@@H](Cc1c[nH]cn1)C(=O)N[C@@H](CCCCN)C(=O)N[C@H](C(=O)N[C@H](C(=O)N[C@@H](CC(=O)O)C(=O)O)[C@@H](C)O)[C@@H](C)CC [Compound 14] (H-H[Aib]EGTFTSELATILDEQAARDFIAWLYAHKITD-OH) | 21 | 0.049
